# Measured values taken from DBAASP.
# Columns and labels:
# Experiment in all cases: ≥ marks a high value that may be exact or a test limit, other limits are often not marked, values filed in µg/mL are converted to µM
# [1] = system: Sporothrix schenckii
# [2] = system: Staphylococcus aureus ATCC 33592
# [3] = system: Klebsiella pneumoniae ATCC 27736
# [4] = system: Candida parapsilosis ATCC 22019
# [5] = system: Pseudomonas aeruginosa ATCC BAA-427
# [6] = system: Candida albicans ATCC 10231
# [7] = system: Staphylococcus aureus ATCC 25923
# [8] = system: Bacillus subtilis ATCC 6633
# [9] = system: Staphylococcus aureus ATCC 700698
# [10] = system: Staphylococcus aureus ATCC BAA-44
# [11] = system: Cryptococcus neoformans
# [12] = system: Staphylococcus aureus ATCC 29213
# [13] = system: Escherichia coli ATCC 9637
# [14] = system: Staphylococcus aureus ATCC 700699
# [15] = system: Enterobacter cloacae AB2010162
# [16] = system: Pseudomonas putida
# [17] = system: Klebsiella oxytoca AB2010143
# [18] = system: Escherichia coli DH5alpha
# [19] = system: Salmonella enterica AB2010185
# [20] = system: Bacillus magaterium AB90008
# [21] = system: Pseudomonas fluorescens
# [22] = system: Micrococcus luteus AB2010179
# [23] = system: Staphylococcus aureus AB94004
# [24] = system: Escherichia coli ATCC 25922
# [25] = system: Escherichia coli ATCC 11775
# [26] = system: Salmonella enterica subsp. enterica serovar Typhimurium ATCC 14028
# [27] = system: Escherichia coli ATCC 35218
# [28] = system: Salmonella enterica subsp. enterica serovar Typhi Vi+
# [29] = system: Candida albicans CPCC 400416
# [30] = system: Staphylococcus aureus CPCC 100520
# [31] = system: Escherichia coli CPCC 100521
# [32] = system: Bacillus cereus ATCC 14579
# [33] = system: Pseudomonas aeruginosa PA14
# [34] = system: Bacillus subtilis ATCC 6051
# [35] = system: Enterococcus faecalis A4
# [36] = system: Bacillus amyloliquefaciens ATCC 23842
# [37] = system: Bacillus licheniformis ATCC 14580
# [38] = system: Staphylococcus aureus MR
# [39] = system: Escherichia coli W3110
# [40] = system: Enterococcus faecium
# [41] = system: Acinetobacter baumannii AB5075
# [42] = system: Enterococcus faecium 5F-10
# [43] = system: Escherichia coli NDM
# [44] = system: Staphylococcus aureus 215
# [45] = system: Staphylococcus aureus
# [46] = system: Enterococcus faecalis 1F-1
smiles,measurement,setting,value
CC[C@H](C)[C@H](NC(=O)[C@H](C)NC(=O)[C@H](CCCCN)NC(=O)[C@@H]1CCCN1C(=O)[C@H](C)NC(=O)[C@H](Cc1cnc[nH]1)NC(=O)[C@@H](NC(=O)[C@H](C)NC(=O)CNC(=O)[C@H](CCCCN)NC(=O)[C@@H](NC(=O)[C@H](CC(C)C)NC(=O)[C@H](Cc1c[nH]c2ccccc12)NC(=O)CNC(=O)[C@H](Cc1ccccc1)NC(=O)[C@@H](N)Cc1ccccc1)[C@@H](C)CC)[C@@H](C)CC)C(=O)N[C@@H](Cc1cnc[nH]1)C(=O)NCC(=O)N[C@@H](CC(C)C)C(=O)N[C@H](C(=O)N[C@@H](Cc1cnc[nH]1)C(=O)N[C@@H](CCCN=C(N)N)C(=O)N[C@@H](CCCN=C(N)N)C(=O)N[C@@H](CCCN=C(N)N)C(=O)N[C@@H](Cc1cnc[nH]1)C(=O)O)[C@@H](C)CC [FFGWLIKGAIHAPKAIHGLIHRRRH],MIC,[1],27.2 µM
same,MIC,[2],1.6 µM
same,MIC,[3],6.8 µM
same,MIC,[4],6.8 µM
same,MIC,[5],6.8 µM
same,MIC,[6],13.6 µM
same,MIC,[7],3 µM
same,MIC,[8],3 µM
same,MIC,[9],3 µM
same,MIC,[10],1.6 µM
same,MIC,[11],13.6 µM
same,MIC,[12],1.6 µM
same,MIC,[13],3 µM
same,MIC,[14],1.6 µM
CC[C@H](C)[C@H](NC(=O)[C@H](CC(C)C)NC(=O)[C@H](CCCCN)NC(=O)[C@H](CC(C)C)NC(=O)[C@H](C)NC(=O)CNC(=O)[C@H](CCCCN)NC(=O)[C@H](C)NC(=O)[C@H](CC(C)C)NC(=O)[C@H](C)NC(=O)CNC(=O)[C@H](Cc1c[nH]c2ccccc12)NC(=O)[C@@H](N)Cc1ccccc1)C(=O)N1CCC[C@H]1C(=O)N[C@@H](CO)C(=O)N[C@@H](CC(C)C)C(=O)N[C@H](C(=O)N[C@@H](CO)C(=O)N[C@@H](CO)C(=O)N[C@@H](Cc1ccccc1)C(=O)N[C@H](C(N)=O)[C@@H](C)O)C(C)C [FWGALAKGALKLIPSLVSSFT],MIC,[15],≥ 45 µM
same,MIC,[16],≥ 35 µM
same,MIC,[17],≥ 45 µM
same,MIC,[18],≥ 40 µM
same,MIC,[19],≥ 40 µM
same,MIC,[20],1.5 µM
same,MIC,[21],≥ 50.5 µM
same,MIC,[22],1.5 µM
same,MIC,[23],6.9 µM
CC[C@H](C)[C@H](NC(=O)[C@@H]1CCCN1C(=O)[C@H](CCCN=C(N)N)NC(=O)[C@@H]1CCCN1C(=O)[C@H](Cc1cnc[nH]1)NC(=O)[C@H](CO)NC(=O)[C@@H](NC(=O)[C@@H]1CCCN1C(=O)[C@H](CCCCN)NC(=O)[C@@H]1CCCN1C(=O)[C@H](CO)NC(=O)[C@H](Cc1ccc(O)cc1)NC(=O)[C@@H]1CCCN1C(=O)[C@H](CCCN=C(N)N)NC(=O)[C@@H]1CCCN1C(=O)[C@H](CCCCN)NC(=O)CN)[C@@H](C)O)C(=O)N[C@@H](CCCN=C(N)N)C(=O)N[C@H](C(=O)O)C(C)C [GKPRPYSPKPTSHPRPIRV],MIC,[24],3.5 µM
same,MIC,[25],3 µM
same,MIC,[26],10 µM
same,MIC,[27],2 µM
same,MIC,[28],10 µM
CC[C@H](C)[C@H](N)C(=O)N[C@H](C(=O)NCC(=O)N1CCC[C@H]1C(=O)N[C@H](C(=O)N[C@@H](CC(C)C)C(=O)NCC(=O)N[C@@H](CC(C)C)C(=O)N[C@H](C(=O)NCC(=O)N[C@@H](CCCCN)C(=O)N[C@@H](C)C(=O)N[C@@H](CC(C)C)C(=O)NCC(=O)NCC(=O)N[C@@H](CC(C)C)C(=O)N[C@@H](CC(C)C)C(N)=O)C(C)C)C(C)C)[C@@H](C)CC [IIGPVLGLVGKALGGLL],MIC,[29],≥ 161 µM
same,MIC,[30],≥ 161 µM
same,MIC,[31],≥ 161 µM
CC[C@H](C)[C@H](NC(=O)[C@H](C)NC(=O)[C@@H](NC(=O)[C@@H]1CCCN1C(=O)[C@H](CCCN=C(N)N)NC(=O)[C@H](CCCCN)NC(=O)[C@H](CO)NC(=O)[C@@H](NC(=O)[C@H](CC(C)C)NC(=O)[C@@H](NC(=O)[C@H](CCCN=C(N)N)NC(=O)[C@@H](NC(=O)[C@H](CC(C)C)NC(=O)[C@@H](N)CCCN=C(N)N)C(C)C)[C@@H](C)CC)C(C)C)C(C)C)C(=O)N[C@@H](CCCCN)C(=O)N1CCC[C@H]1C(=O)N[C@@H](Cc1ccc(O)cc1)C(=O)N[C@@H](Cc1ccccc1)C(=O)N[C@@H](CCCN=C(N)N)C(=O)N[C@@H](CC(C)C)C(=O)O [RLVRILVSKRPVAIKPYFRL],MIC,[32],26.4 µM
same,MIC,[33],8 µM
same,MIC,[34],26.4 µM
same,MIC,[35],1.65 µM
same,MIC,[36],26.4 µM
same,MIC,[37],26.4 µM
same,MIC,[38],26.4 µM
same,MIC,[39],4 µM
same,MIC,[40],1.65 µM
same,MIC,[41],2 µM
same,MIC,[42],0.825 µM
same,MIC,[43],8 µM
same,MIC,[44],26.4 µM
same,MIC,[12],> 26.4 µM
same,MIC,[45],13.2 µM
same,MIC,[46],1.65 µM
